Literature values in US20180235869A1, “METHODS AND COMPOSITIONS FOR SOFT ANTICHOLINERGIC ZWITTERIONS” (Bodor Laboratories, Inc., priority 2015, published 2018).

Details: solid oral form

## C[N+]1(C)CCC(OC(=O)C(O)(c2ccccc2)C2CCCC2)C1 (stereo not drawn) [glycopyrrolate]
children
  reducing drooling: effective in reducing drooling
children, most with cerebral palsy
  dropped out of the study because of adverse effects: over 20%
Most with cerebral palsy
  children affected by adverse events: 69%
